Source: paper PMC12444508, “Mechanistic Insights into the Anticancer Action of Novel 2‑Hydroxy-1,4-naphthoquinone Thiol Derivatives” (ACS Omega, 2025)
pIC50: −log10 of the molar value.

Experiments:
SCC-4 cells = assay: MTT cell viability assay, SCC-4; assay type: cell-based, human; conditions: for pIC50: Homo sapiens, SCC-4, 72 h, MTT, read-out: IC50 SCC-4; for selective index (SI) SCC-4: vs normal oral fibroblasts
Experimental: (§1) Human SCC-4, SCC-9, and SCC-25 cells, derived from a human oral tongue SCC (squamous cell carcinoma), were obtained from ATCC (CRL-1624, CRL-1629, and CRL-1628, respectively) and maintained in 1:1 DMEM/F12 (Dulbecco’s modified Eagle’s medium and Ham’s F12 medium; Gibco (Thermo Fisher, Waltham, MA, USA)) supplemented with 10% (v/v) FBS (fetal bovine serum; Invitrogen, Thermo Fisher, Waltham, MA, USA) and 400 ng/mL hydrocortisone (Sigma-Aldrich Corporation, St. Louis, MO, USA). B16-F10 (melanoma; CRL-6475), HCT-116 (colorectal cancer; CCL-247), and HepG2 (liver cancer; HB-8065), in addition to primary normal human gingival fibroblasts obtained from ATCC (PCS-201-018), were maintained in DMEM supplemented with 10% (v/v) of FBS and were used in a maximum of six passages. Cells were grown in a humidified environment containing 5% CO2 at 37 °C. For all biological assays, compounds and shikonin were solubilized in 100% DMSO (all Sigma-Aldrich Corp.) to a final concentration of 10 mM and lapachol in ethanol. The carboplatin control was prepared in water (Fauldcarbo; Libbs Farmacêutica, São Paulo, SP, Brazil) and was used as a standard anticancer compound.
(§2) The viability of OSCC cell lines and primary human fibroblast cells was assessed using the MTT assay as in ref . Briefly, cells were grown in triplicate in 96-well plates (5 × 10^3 cells/well) until confluence. Then, the medium was removed, fresh medium was added, and the cells were returned to the incubator in the presence of different compounds. DMSO at the same concentration was used as a control for 100% cell viability. After 72 h, cells were incubated with 0.5 mg/mL of MTT reagent (3-(4,5-dimethyl-2-thiazolyl)-2,5-diphenyl-2-H-tetrazolium bromide) (Sigma-Aldrich Corporation, Louis, MO, USA) for 3.5 h. Then, the wells containing the cells were washed with PBS heated to 37 °C, the formazan crystals were dissolved in a solvent solution (DMSO/methanol 1:1 v/v), and the absorbance was read at 560 nm using an EPOCH microplate spectrophotometer (BioTek Instruments, Winooski, VT, USA) with the background absorbance at 670 nm subtracted. Control chemotherapeutics (carboplatin and shikonin) were used.
(§3) Data are presented as means ± SD. IC50 values for the MTT assays were obtained by nonlinear regression using the […] 8.4.3.0 program (Intuitive Software for Science, San Diego, CA, USA) from at least three independent experiments. A dose–response curve (inhibitor) vs response using the least-squares method was used to determine the IC50, SD, and R2 of the data. The selectivity index was calculated as SI = IC50 of the compound in normal oral fibroblast cells/IC50 of the same compound for each oral cancer cell line (SCC-4, SCC-9, and SCC-25) and averaged when indicated.

[1] = system: HCT-116 (colorectal cancer); assay: MTT cytotoxicity/selectivity, HCT-116; assay type: cell-based; conditions: vs normal oral fibroblasts
Experimental: as §1
as §2, with “DMSO at the same concentration was used as a control for 100% cell viability. After 72 h, cells were incubated with 0.5 mg/mL of MTT reagent (3-(4,5-dimethyl-2-thiazolyl)-2,5-diphenyl-2-H-tetrazolium bromide) (Sigma-Aldrich Corporation, Louis, MO, USA) for 3.5 h.” left out, “Control chemotherapeutics (carboplatin and shikonin) were used.” left out
Data are presented as means ± SD. […] The selectivity index was calculated as SI = IC50 of the compound in normal oral fibroblast cells/IC50 of the same compound for each oral cancer cell line (SCC-4, SCC-9, and SCC-25) and averaged when indicated.

SCC-9-LC3-GFP cells = assay: Autophagy assay (LC3-GFP puncta); assay type: cell-based, human; conditions: 1 × IC50, 48 h
Experimental: To determine whether compounds 7a and 7e induce autophagy, SCC-9 cells were stably transduced with the plasmid expressing LC3-GFP as described. […] As a positive control, we used compound 8 (Supplementary Figure S1), an already described naphthoquinone-triazole-coumarin hybrid, able to induce autophagy at its IC50 concentration, 30 μM. After 48 h, the cells were visualized using a Zeiss Axio Observer A1 Fluorescence Optical Microscope (Zeiss, Oberkochen, Baden-Württemberg, Germany) to observe the formation of typical autophagy spots and photographed using a high-resolution monochromatic microscopy camera (Axiocam 503 mono, resolution: 1936 × 1460 pixels, pixel size: 4.54 μm × 4.54 μm) to maximize sensitivity and image quality.

Hemolysis assay = assay type: cell-based, human; conditions: human, human erythrocytes, Triton X-100 positive control, read-out: % Hemolysis (Mean ± SD)
Experimental: To determine the surfactant power of the substances present in biological membranes, a hemolysis test was carried out with human blood approved by the Research Ethics Committee of the Universidade Federal Fluminense (CAAE: 43134721.4.0000.5626). Erythrocytes were collected for centrifugation at 1500 rpm for 15 min, washed with PBS (phosphate-buffered saline) supplemented with 10 mM glucose, and counted in an automatic cell counter (Thermo Fisher, Waltham, MA, USA). […] In total, 10 μL of PBS was used as a negative control, and 10 μL of PBS with 0.1% Triton x 100 was used as a positive control. Data reading was performed with EPOCH (BioTek Instruments, Winooski, VT, USA) at an absorbance of 540 nm, and statistical data were generated using […] Prism 8.4.3.0 program (Intuitive Software for Science, San Diego, CA, USA).

C57BL/6 mice = assay: In vivo acute toxicity study; conditions: single intraperitoneal dose 100, 200 and 400 mg/kg, 14 days
Experimental: . All experiments were carried out in accordance with Brazilian guidelines and regulations. Dosing and analysis were performed in accordance with 423 OECD guidelines and reviewed by. Each group of animals had n = 3 and received only one intraperitoneal injection (Day 0) of compounds 7a and 7e dissolved in […] of PBS and 3% DMSO. Animals in the control group received only 3% DMSO in PBS. The first dose of the compound was 100 mg/kg. Subsequent dose levels (200 mg/kg and 400 mg/kg) were determined based on the result obtained from the previous dose. Animals were examined daily, twice a day, for mortality and morbidity for 14 days, when all animals were anesthetized (ketamine 100 mg/kg and xylazine 10 mg/kg) followed by cervical dislocation. Macroscopic necropsy of the main organs was performed. The animals’ body weight and average food consumption were measured every 7 days. As an indicator of morbidity, the following signs were evaluated: tremors, seizure, salivation, diarrhea, and lethargy, along with the signs of pain, increased back arching, and mobility disability. The necropsy included examination of the external characteristics of the carcass; external orifices of the body; the abdominal, thoracic, and cranial cavities; and organs/tissues of the liver, thymus, right kidney, right testicle, heart, and lung.

SCC-9 cells (OSCC cells) = assay: MTT cell viability assay, SCC-9; assay type: cell-based, human; conditions: for pIC50: Homo sapiens, SCC-9, 72 h, MTT, read-out: IC50 SCC-9 oral cancer; for SI (SCC-9): IC50 normal oral fibroblast / IC50 SCC-9
Experimental: as §1, §2, §3

SCC-25 cells = assay: MTT cell viability assay, SCC-25; assay type: cell-based, human; conditions: for pIC50: Homo sapiens, SCC-25, 72 h, MTT, read-out: IC50 SCC-25; for selective index (SI) SCC-25: vs normal oral fibroblasts
Experimental: as §1, §2, §3

Row | SMILES | pIC50 (SCC-4 cells) | selective index (SI) SCC-4 (SCC-4 cells) | selective index (SI) HCT-116 colon cancer [1] | cells with LC3-positive puncta (autophagosome formation) (SCC-9-LC3-GFP cells) [%] | hemolysis at 500 µM (Hemolysis assay) [%] | abdominal cavity and macroscopic organs at necropsy (C57BL/6 mice) | body weight and food consumption vs control animals (C57BL/6 mice) | pIC50 (SCC-9 cells (OSCC cells)) | SI (SCC-9) (SCC-9 cells (OSCC cells)) | pIC50 (SCC-25 cells) | selective index (SI) SCC-25 (SCC-25 cells)
1 | CC1(C)OC2=C(C(=O)c3ccccc3C2=O)C(Sc2ccccc2)C1Sc1ccccc1 (stereo not shown) [7a, 2,2-Dimethyl-3,4-bis(phenylthio)-3,4-dihydro-2H-benzo[g]chromene-5,10-dione] | 4.97 | 5.4 | 2.7 | 20.5 | < 2 | no morphological changes or lesions | no significant difference | 4.58 | 2.2 | 4.55 | 2.0
2 | COc1ccc(SC2C3=C(OC(C)(C)C2Sc2ccc(OC)cc2)C(=O)c2ccccc2C3=O)cc1 (stereo not shown) [7e, 3,4-Bis((4-methoxyphenyl)thio)-2,2-dimethyl-3,4-dihydro-2H-benzo[g]chromene-5,10-dione] | 4.24 | 1.9 | 9.1 | 7.4 | < 2 | no morphological changes or lesions | no significant difference | 4.33 | 2.4 | 4.89 | 8.5
